# From the supplement of paper PMC10307832
# Experiments:
# Test in all cases: relative viability (nuclei count vs DMSO), 5 days (fraction); higher = more cells survive
# [1] = compound: CC(C)C[C@H](NC(=O)[C@H](Cc1ccccc1)NC(=O)c1cnccn1)B(O)O [Bortezomib] + Cc1cc(Nc2cc(N3CCN(C)CC3)nc(Sc3ccc(NC(=O)C4CC4)cc3)n2)n[nH]1 [Tozasertib] (partner 0.1 µM)
# Procedure, shortened: (§1)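 Dosing by pin tool came one day after lung cancer cell lines were seeded in 1536-well plates, using either one drug or a fixed anchor-drug dose plus five library-drug doses (not always all listed) in √10 steps. After 5 days, nuclei were counted on 4× images. Relative viability is treated-well nuclei count divided by vehicle-well nuclei count, and values are medians of duplicate plates.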
# [2] = compound: COC1=CC(c2cc3ccccc3[nH]2)=N/C1=C\c1[nH]c(C)cc1C [Obatoclax] + N=C(N)NC(=N)NCCc1ccccc1 [Phenformin] (partner 250 µM)
# Procedure, shortened: as §1
# [3] = compound: COC1=CC(c2cc3ccccc3[nH]2)=N/C1=C\c1[nH]c(C)cc1C [Obatoclax] + O=C(c1cc(Cc2n[nH]c(=O)c3ccccc23)ccc1F)N1CCN(C(=O)C2CC2)CC1 [Olaparib] (partner 8 µM)
# Procedure, shortened: as §1
# [4] = compound: CC1=CC(=NN1)NC2=CC(=NC(=N2)/C=C/C3=CC=CC=C3)N4CCN(CC4)C + CS(=O)(=O)CCNCc1ccc(-c2ccc3ncnc(Nc4ccc(OCc5cccc(F)c5)c(Cl)c4)c3c2)o1 [Lapatinib] (partner 2 µM)
# Procedure, shortened: as §1
cell line,measurement,setting,value
NCI-H650,relative viability,[1]; first compound 0.000632 µM,0.697
same,relative viability,[1]; first compound 0.002 µM,0.637
same,relative viability,[1]; first compound 0.006325 µM,0.286
same,relative viability,[1]; first compound 0.02 µM,0.133
same,relative viability,[2]; first compound 0.01 µM,0.454
same,relative viability,[2]; first compound 0.03162 µM,0.395
same,relative viability,[2]; first compound 0.3162 µM,0.314
same,relative viability,[2]; first compound 1 µM,0.288
same,relative viability,[3]; first compound 0.01 µM,0.385
same,relative viability,[3]; first compound 0.03162 µM,0.388
same,relative viability,[3]; first compound 0.3162 µM,0.264
same,relative viability,[3]; first compound 1 µM,0.18
same,relative viability,[4]; first compound 0.08 µM,0.804
same,relative viability,[4]; first compound 0.253 µM,1.15
same,relative viability,[4]; first compound 0.8 µM,0.839
same,relative viability,[4]; first compound 2.53 µM,0.378
same,relative viability,[4]; first compound 8 µM,0.271
